Results from ChEMBL document CHEMBL1136378, “Novel 6,7-diphenyl-2,3,8,8a-tetrahydro-1H-indolizin-5-one analogues as cytotoxic agents” (Bioorg Med Chem Lett, 2003).

Experiments:
U-251 = experiment: In vitro cytotoxic activity tested against human CNS (U251) cell line; format: functional
A498 [1] = experiment: In vitro cytotoxic activity was tested against human renal cancer (A498) cell line; format: functional
SK-OV-3 [2] = experiment: In vitro cytotoxic activity tested against human ovarian cancer (SK-OV3) cell line; format: functional
DU-145 [3] = experiment: In vitro cytotoxic activity tested against human prostate cancer (DU145) cell line; format: functional
M14 [4] = experiment: In vitro cytotoxic activity was tested against human melanoma cancer (M14) cell line; format: functional
NCI/ADR-RES [5] = experiment: In vitro cytotoxic activity tested against human breast cancer MCF/ADR cell line
NCI-H522 [6] = experiment: In vitro cytotoxic activity tested against human lung cancer (H-522) cell line
[7] = Average growth inhibition against cell lines was calculated; format: functional
SW-620 [8] = experiment: In vitro cytotoxic activity tested against human colon cancer (SW620) cell line; format: functional
M14 [9] = experiment: In vitro cytotoxic activity against human melanoma cancer (M14) cell line; format: functional
SW-620 [10] = experiment: In vitro cytotoxic activity against human colon cancer (SW620) cell line; format: functional
NCI-H522 [11] = experiment: In vitro cytotoxic activity against human lung cancer (H-522) cell line
[12] = Cmax value was determined at a dose of 200 mg/kg (i.p.) in Mice; format: ADME, organism-based; design: dose 200 mg/kg, route intraperitoneal; settings: mouse, in vivo, ip
NCI/ADR-RES [13] = experiment: In vitro cytotoxic activity against human breast cancer MCF/ADR cell line; format: functional
[14] = Tmax value was determined at a dose of 200 mg/kg (i.p.) in Mice; format: ADME, organism-based; design: dose 200 mg/kg, route intraperitoneal; settings: mouse, in vivo, ip
DU-145 [15] = experiment: In vitro cytotoxic activity against human prostate cancer (DU145) cell line; format: functional
A498 [16] = experiment: In vitro cytotoxic activity against human renal cancer (A498) cell line; format: functional
SK-OV-3 [17] = experiment: In vitro cytotoxic activity against human ovarian cancer (SK-OV3) cell line; format: functional
[18] = Area under curve was determined at a dose of 200 mg/kg (i.p.) in Mice; format: ADME, organism-based; design: dose 200 mg/kg, route intraperitoneal; settings: mouse, in vivo, ip
[19] = Half life beta(2,4,6,8h) value was determined at a dose of 200 mg/kg (i.p.) in Mice; format: ADME, organism-based; design: dose 200 mg/kg, route intraperitoneal; settings: mouse, in vivo, ip, read-out: T1/2 beta (converted)
[20] = Tmax value was determined at a dose of 100 mg/kg (i.p.) in Mice; format: ADME, organism-based; design: dose 100 mg/kg, route intraperitoneal; settings: mouse, in vivo, ip
[21] = Area under curve was determined at a dose of 100 mg/kg (i.p.) in Mice; format: ADME, organism-based; design: dose 100 mg/kg, route intraperitoneal; settings: mouse, in vivo, ip
[22] = Cmax value was determined at a dose of 100 mg/kg (i.p.) in Mice; format: ADME, organism-based; design: dose 100 mg/kg, route intraperitoneal; settings: mouse, in vivo, ip

| Structure (SMILES) | GI50 (U-251) [µM] | GI50 (A498 [1]) [µM] | GI50 (SK-OV-3 [2]) [µM] | GI50 (DU-145 [3]) [µM] | GI50 (M14 [4]) [µM] | GI50 (NCI/ADR-RES [5]) [µM] | GI50 (NCI-H522 [6]) [µM] | GI50 [7] [µM] | GI50 (SW-620 [8]) [µM] | further results |
| --- | --- | --- | --- | --- | --- | --- | --- | --- | --- | --- |
| CSc1ccc(C2=C(c3ccc(O)cc3)C(=O)N3CCCC3C2)cc1 (stereo not drawn) | > 100 | > 100 | > 100 | > 100 | > 100 | > 100 | > 100 | > 100 | > 100 | – |
| CSc1ccc(C2=C(c3ccc(OCC4CO4)cc3)C(=O)N3CCCC3C2)cc1 (stereo not drawn) | 0.08 | 0.5 | 10 | 0.5 | 0.09 | 10 | 0.03 | 2.6 | 0.09 | – |
| CSc1ccc(C2=C(c3ccc(C)c(C)c3)C(=O)N3CCCC3C2)cc1 (stereo not drawn) | 10 | 0.3 | 0.3 | 0.5 | 0.8 | 0.8 | 0.3 | 1.7 | 0.7 | – |
| COc1ccc(C2=C(c3ccc(SC)cc3)CC3CCCN3C2=O)cc1OC(=O)CNC(=O)OC(C)(C)C (stereo not drawn) | 6 | – | 20 | 10 | – | 6 | 7 | 11.5 | 20 | – |
| COc1cc(C2=C(c3ccc(SC)cc3)CC3CCCN3C2=O)ccc1O (stereo not drawn) | 8 | 5 | 8 | 8 | 9 | 8 | 7 | 7.75 | 9 | – |
| COc1ccc(C2=C(c3ccc(OC)c(OC)c3)CN3CCCC3C2)cc1OC (stereo not drawn) | > 100 | > 100 | > 100 | > 100 | > 100 | > 100 | > 100 | > 100 | > 100 | – |
| CSc1ccc(C2=C(c3ccc(O)c(O)c3)C(=O)N3CCCC3C2)cc1 (stereo not drawn) | 30 | – | 80 | 60 | – | 80 | 60 | 60 | 50 | – |
| CSc1ccc(C2=C(c3ccc(C(F)(F)F)cc3)C(=O)N3CCCC3C2)cc1 (stereo not drawn) | 0.8 | – | – | – | – | – | – | 6.3 | – | GI50 (M14 [9]): 12 µM; GI50 (SW-620 [10]): 0.8 µM; GI50 (NCI-H522 [11]): 0.8 µM; Cmax [12]: 3.79 µM; GI50 (NCI/ADR-RES [13]): 0.8 µM; Tmax [14]: 0.25 h; GI50 (DU-145 [15]): 0.7 µM; GI50 (A498 [16]): 20 µM; GI50 (SK-OV-3 [17]): 15 µM; AUC [18]: 10.7 µM·h; half-life [19]: 2.66 h |
| CSc1ccc(C2=C(c3ccc(OCCN4CCOCC4)cc3)C(=O)N3CCCC3C2)cc1 (stereo not drawn) | 9 | 9 | 9 | 20 | 20 | 9 | 7 | 11.5 | 9 | – |
| COc1ccc(/C=C\c2cc(OC)c(OC)c(OC)c2)cc1O [COMBRETASTATIN A4] | 0.006 | 0.61 | < 0.0001 | – | 0.0001 | 0.09 | 0.007 | 0.103 | 0.005 | – |
| COc1ccc(C2=C(c3ccc(SC)cc3)CC3CCCN3C2=O)cc1Br (stereo not drawn) | 0.8 | 0.6 | 3 | 0.9 | 3 | 6 | 0.7 | 2.5 | 5 | – |
| CSc1ccc(C2=C(c3ccc(Br)cc3)C(=O)N3CCCC3C2)cc1 (stereo not drawn) | 7 | 7 | 9 | 9 | 9 | 8 | 7 | 7.8 | 7 | – |
| COc1ccc(C2=C(c3ccc(SC)cc3)CC3CCCN3C2=O)cc1C (stereo not drawn) | 0.09 | 0.4 | 15 | 0.9 | 0.2 | 0.4 | 0.1 | 2.1 | 0.5 | – |
| COc1ccc(C2=C(c3cc(OC)c(OC)c(OC)c3)CC3CCCN3C2=O)cc1O (stereo not drawn) | > 100 | > 100 | > 100 | > 100 | > 100 | > 100 | > 100 | > 100 | > 100 | – |
| COc1ccc(C2=C(c3ccc(OC)c(OC)c3)C(=O)N3CCCC3C2)cc1OC (stereo not drawn) | > 100 | > 100 | > 100 | > 100 | > 100 | > 100 | > 100 | > 100 | > 100 | – |
| COc1ccc(C2=C(c3ccc(SC)cc3)CC3CCCN3C2=O)cc1OC (stereo not drawn) | 0.3 | 8 | 9 | 1.5 | 5 | 0.6 | 2 | 3.6 | 3 | Cmax [12]: 23 µM; Tmax [14]: 0.25 h; AUC [18]: 102 µM·h; half-life [19]: 7.29 h |
| CSc1ccc(C2=C(c3ccc(SC)cc3)C(=O)N3CCCC3C2)cc1 (stereo not drawn) | 5 | 15 | 2 | 8 | 5 | 8 | 15 | 8.1 | 7 | Cmax [12]: 0.86 µM; Tmax [14]: 1 h; AUC [18]: 2.5 µM·h |
| CSc1ccc(C2=C(c3ccc(F)c(C)c3)C(=O)N3CCCC3C2)cc1 (stereo not drawn) | 0.2 | 0.3 | 0.3 | 0.5 | 0.8 | 0.5 | 0.5 | 1.1 | 0.6 | – |
| CSc1ccc(C2=C(c3ccc(F)cc3)C(=O)N3CCCC3C2)cc1 (stereo not drawn) | 0.09 | 0.1 | 30 | 0.5 | 0.6 | 0.8 | 0.25 | 4.1 | 0.5 | Cmax [12]: 0.99 µM; Tmax [14]: 1.5 h; AUC [18]: 3.88 µM·h; half-life [19]: 2.59 h |
| COc1ccc(C2=C(c3ccc(SC)cc3)CC3CCCN3C2=O)cc1O (stereo not drawn) | 5 | – | > 100 | 6 | – | 5 | 6 | 23.6 | 20 | – |
| COc1ccc(C2=C(c3ccc(SC)cc3)CC3CCCN3C2=O)cc1 (stereo not drawn) | 2 | 0.8 | 3 | 0.9 | 4 | 5 | 0.8 | 2.4 | 3 | – |
| COc1ccc(C2=C(c3ccc(SC)cc3)CC3CCCN3C2)cc1O (stereo not drawn) | > 100 | > 100 | > 100 | > 100 | > 100 | > 100 | > 100 | > 100 | > 100 | – |
| CSc1ccc(C2=C(c3ccc(C)cc3)C(=O)N3CCCC3C2)cc1 (stereo not drawn) | 0.4 | 4 | 9 | 0.6 | 6 | 0.6 | 0.9 | 3 | 3 | Cmax [12]: 8.02 µM; Tmax [14]: 0.25 h; AUC [18]: 38.5 µM·h; half-life [19]: 6.24 h |
| COc1ccc(C2=C(c3ccc(SC)cc3)CC3CCCN3C2=O)cc1OC(=O)C1CCCN1C(=O)OC(C)(C)C (stereo not drawn) | 2 | – | 10 | 5 | – | 4 | 5 | 6 | 10 | – |
| CSc1ccc(C2=C(c3ccc(F)c(F)c3)C(=O)N3CCCC3C2)cc1 (stereo not drawn) | 15 | 0.1 | 0.1 | 0.5 | 0.3 | 0.8 | 0.2 | 2.1 | 0.2 | Tmax [20]: 0.29 h; AUC [21]: 6.92 µM·h; Cmax [22]: 3.61 µM |
